From ChEMBL document CHEMBL1201862, “PubChem BioAssay data set” (2004) come the findings set out here.

Test systems include UACC-62; HCC 2998; RXF 393; SNB-19; NCI-H522; HCT-116; SK-MEL-5; CCRF-CEM; HOP-62; OVCAR-5; SK-OV-3; SF-295; NCI-H23; SF-268; OVCAR-3; K562; SNB-75; HL-60; A498; NCI/ADR-RES.
Common to all, as to assay: NCI tumour cell line growth inhibition, 48 h

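All cell lines were grown in 96-well plates and treated with compound for 48 hours. GI50 marks 50% less growth.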 Calls of active or inactive are those of the source. Rule as the data show it: active = GI50 up to about 1.1 µM and inactive = higher.

As for `CCCCCCCCC[C@@H]1C[C@H](O)[C@H](Cc2ccccc2)N1C(=O)OC(C)(C)C`, the GI50 is 17 µM (inactive) in the assay with UACC-62; 14.4 µM (inactive) in the assay on HCC 2998; 17.7 µM (inactive) with RXF 393; 18.6 µM (inactive) with SNB-19; 16.4 µM (inactive) with NCI-H522; 17.9 µM (inactive) in the assay with HCT-116. The GI50 is 19.1 µM (inactive) in the assay with SK-MEL-5; 20.2 µM (inactive) in the assay on CCRF-CEM; 19.9 µM (inactive) in the assay on HOP-62; 15.1 µM (inactive) in the assay on OVCAR-5; 19.6 µM (inactive) in the assay with SK-OV-3; 15.8 µM (inactive) with SF-295. The GI50 is 15.6 µM (inactive) in the assay on NCI-H23; 18.7 µM (inactive) in the assay with SF-268; 20.3 µM (inactive) with OVCAR-3; 37.4 µM (inactive) in the assay with K562; 21.9 µM (inactive) with SNB-75; 22.9 µM (inactive) in the assay on HL-60. Moreover, the GI50 in the assay on A498 is 19.5 µM (inactive).
With `CN1C[C@H]2[C@@H](C1=O)[C@H](c1ccccc1)ON2C`, the GI50 in the assay on HCC 2998, with SNB-19, with NCI-H522, with HCT-116, in the assay on SK-MEL-5 and with CCRF-CEM was > 100 µM (inactive) each time. In addition, the GI50 in the assay with HOP-62, in the assay with OVCAR-5, in the assay with SK-OV-3, with NCI/ADR-RES, in the assay on SF-295 and in the assay on NCI-H23 was > 100 µM (inactive) in each case. The GI50 in the assay with OVCAR-3 was > 100 µM (inactive); with K562, > 100 µM (inactive); in the assay on SNB-75, > 100 µM (inactive); in the assay on HL-60, > 10 µM (inactive).
For the molecule `CC(C)CCC1CC2C(=O)N(c3ccccc3)C(=O)C2c2[nH]c3ccccc3c21` (configuration not stated), the GI50 in the assay with UACC-62 was 6.21 µM (inactive); in the assay on HCC 2998, 1.42 µM (inactive); in the assay on RXF 393 it was 0.83 µM (active); with SNB-19 it was 1.24 µM (inactive); in the assay with SK-MEL-5, 0.347 µM (active); in the assay with CCRF-CEM, 1.33 µM (inactive). In addition, the GI50 in the assay on OVCAR-5 is 17.5 µM (inactive); in the assay with SK-OV-3, 1.36 µM (inactive); in the assay on SF-295, 0.509 µM (active); with NCI-H23, 2.79 µM (inactive); with SF-268 it was 2.05 µM (inactive); with OVCAR-3, 0.885 µM (active). For the same molecule, the GI50 was 0.571 µM (active) in the assay on K562, 2.22 µM (inactive) with SNB-75, 1.11 µM (active) in the assay with HL-60 and 1.84 µM (inactive) in the assay on A498.
Consider `CC1(C)CC(=O)c2c(nc3ccc4ccccc4c3c2-c2ccc(NC(=O)CCC(=O)Nc3ccc(-c4c5c(nc6ccc7ccccc7c46)CC(C)(C)CC5=O)cc3)cc2)C1`, for which the GI50 with RXF 393, in the assay with SNB-19, in the assay on NCI-H522, in the assay with HCT-116, with SK-MEL-5 and in the assay with CCRF-CEM was > 100 µM (inactive) each time. For the same molecule, the GI50 in the assay with HOP-62, in the assay with OVCAR-5, in the assay with SK-OV-3, in the assay on NCI/ADR-RES, in the assay on SF-295 and with SF-268 was > 100 µM (inactive) each time. In addition, the GI50 is > 100 µM (inactive) with OVCAR-3, > 100 µM (inactive) in the assay with K562, 28.2 µM (inactive) in the assay on SNB-75 and > 100 µM (inactive) in the assay with HL-60.
For `O=C1C2C(C(=O)N1OS(=O)(=O)c1ccccc1)N(Cc1ccccc1)C(=O)N2Cc1ccccc1` (configuration not stated), the GI50 with UACC-62 is > 100 µM (inactive); with HCC 2998 it was > 100 µM (inactive); in the assay with RXF 393, 70.8 µM (inactive); in the assay on SNB-19, > 100 µM (inactive); in the assay on NCI-H522 it was > 100 µM (inactive); with HCT-116, > 100 µM (inactive). The GI50 in the assay with SK-MEL-5, with CCRF-CEM, with HOP-62, in the assay with OVCAR-5, in the assay with SK-OV-3 and in the assay on SF-295 was > 100 µM (inactive) each time. Further, the GI50 was > 100 µM (inactive) in the assay with NCI-H23; > 100 µM (inactive) with SF-268; > 100 µM (inactive) in the assay on OVCAR-3; > 100 µM (inactive) in the assay with K562; 57.1 µM (inactive) with SNB-75; > 100 µM (inactive) in the assay with HL-60. The GI50 in the assay on A498 was > 100 µM (inactive).
Consider `CCCC(=O)OC[n+]1ccc2c(C)c3[nH]c4ccc(OC)cc4c3c(C)c2c1`, for which the GI50 in the assay with UACC-62 was 1.06 µM (active); in the assay with HCC 2998, 0.482 µM (active); with RXF 393, 1.09 µM (active); in the assay on NCI-H522 it was 1.09 µM (active); in the assay on HCT-116, 0.0552 µM (active); with SK-MEL-5, 1.19 µM (inactive). Moreover, the GI50 was 0.714 µM (active) with HOP-62; 0.675 µM (active) in the assay on OVCAR-5; 1.51 µM (inactive) with SK-OV-3; 0.581 µM (active) in the assay with SF-295; 0.347 µM (active) in the assay on NCI-H23; 0.313 µM (active) with SF-268. In addition, the GI50 in the assay on OVCAR-3 was 0.873 µM (active); in the assay on SNB-75, 1.16 µM (inactive); in the assay on HL-60, 0.259 µM (active); with A498, 1.02 µM (active).
In the case of `CC(=O)N(CCN1C(=O)c2ccccc2C1=O)CCN1C(=O)c2ccccc2C1=O`, the GI50 with UACC-62, with HCC 2998, with RXF 393, with SNB-19, in the assay with NCI-H522 and in the assay with HCT-116 was > 100 µM (inactive) each time. Besides, the GI50 with SK-MEL-5, in the assay on CCRF-CEM, with HOP-62, with SK-OV-3, with SF-295 and in the assay with NCI-H23 was > 100 µM (inactive) each time. Besides, the GI50 in the assay with SF-268, in the assay with OVCAR-3, in the assay on K562, in the assay on SNB-75, in the assay on HL-60 and in the assay on A498 was > 100 µM (inactive) throughout.
As to `COc1c(Cl)cc(S(=O)O)cc1Cl`, the GI50 in the assay on UACC-62, with HCC 2998, with RXF 393, in the assay with SNB-19, in the assay on NCI-H522 and in the assay on HCT-116 was > 100 µM (inactive) in each case. Besides, the GI50 in the assay with CCRF-CEM, with HOP-62, in the assay on OVCAR-5, with SK-OV-3, in the assay with NCI-H23 and with SF-268 was > 100 µM (inactive) in each case. In addition, the GI50 in the assay on OVCAR-3, in the assay on K562, with SNB-75, in the assay with HL-60 and in the assay on A498 was > 100 µM (inactive) in each case.
